# How the values were obtained:
# [1] = Preliminary animal toxicology study; assay type: in vivo; details: dose of about 100 μg
# [2] = 4-week dermal toxicity study in Gottingen Minipigs; details: both, Gottingen, minipig, in vivo
# Protocol: (§1) Observations for morbidity, mortality, injury, and the availability of food and water were conducted twice daily for all animals. Clinical observations were conducted weekly.
# Gottingen Minipig = test: 4-week dermal toxicity study in Gottingen Minipigs; details: dermal, twice daily, 29 days, 2.1 mL over 450 cm^2
# Protocol: as §1
# [3] = system: Sprague-Dawley or Long Evans rats; test: Second CIA study, calcitriol 1, 2 or 3 μg/mL; assay type: in vivo, rat
# Protocol: CIA was administered topically at concentrations of 1, 2, or 3 μg/mL on Days 5 to 10 followed by administration of various chemotherapeutic agents (etoposide; cyclophosphamide; doxorubicin and cyclophosphamide; cytosine beta-D arabinofurosamine; cytosine beta-D arabinofurosamine and doxorubicin; and paclitaxel).
# C3H/HeJ mouse = test: C3H/HeJ model of alopecia areata; assay type: in vivo; details: 0.2 μg for 15 days, observed 30 days
# Protocol: C3H/HeJ Model of Abpecia Areata. Retired breeders (8 months of age) were observed daily for the development of AA lesions. […] One group received ethanol vehicle control whereas the other received 0.2 μg 1,25(OH)2D3 in the alopecic lesions for 15 days.
# guinea pigs = test: Skin sensitization study; assay type: in vivo, guinea pig; details: calcitriol at 5.7 μg/g, topical patch induction and challenge
# Protocol: Induction phase. […] The induction exposure was repeated at the same skin site once a week for 2 weeks. The vehicle and positive control groups composed of 5 male and 5 female guinea pigs, each of which were exposed in the same manner as the treatment group to propylene glycol/anhydrous ethanol or hexylcinnamic aldehyde (a known mild to moderate skin-sensitizer), respectively. Skin reactions were scored and recorded at approximately 24 hours after patch removal during the induction phase. After the last induction exposure, the animals remained untreated for two weeks before the challenge exposure.
# Challenge phase. The challenge exposure was conducted two weeks after the final topical induction. The test article was topically applied to the Vehicle Control and Test Group at the concentration determined to be non-irritating in the irritation screen. The Vehicle Control Group was also challenged with the Vehicle. The Positive Control Groups received the positive control article. The challenge application sites were scored at approximately 24 and 48 hours after patch removal.
# HepG2 = test: Cell growth / viability assay; assay type: cell-based
# PC-3 = test: Cell growth / viability assay; assay type: cell-based; details: 0.1 μg/mL calcitriol for two passages
# Protocol: In these experiments, a selected commercial drug was serially diluted, starting at a concentration 4-times higher than the final desired concentration for cell incubation. […] The drug treatment period was usually three days. At the end of the three days, the background OD of the 96-well plate was read at 280 nm, before 20 μL of the “Substrate Cell Titer 96 Aqueous One Solution Reagent” (Promega) was added to each well. […] The net OD increase was calculated by subtracting the pre-substrate OD reading. The impact of the drug on the cells was calculated by comparing the OD at different concentrations in relation to the OD of the control wells (without the drug). The results of the Net OD as a function of drug concentration was plotted and used to determine ED50 values. […] Then these pretreated cells were utilized to set up the cell based assay.
# [4] = system: EMT-6 murine breast tumor; details: male mice, topical calcitriol before i.p. cyclophosphamide; cited from earlier work
# Sprague Dawley rats = test: PCA model, hair regrowth in alopecic rats; assay type: in vivo, rat; details: 0.2 μg topical days 22-35, rats alopecic from cyclophosphamide or etoposide; controls day 42
# Protocol: Topical application of 1,25(OH)2D3. 1,25(OH)2D3 was dissolved in absolute ethanol and applied topically with an applicator. Control animals were similarly treated with vehicle only. […] For CIA experiments, 1,25(OH)2D3 was given daily beginning on day 5 after birth and ending on day 10. […] For CIA and PCA, the experimental group was treated with 0.2 μg of 1,25(OH)2D3 in 150 μL of absolute ethanol applied topically over the head and neck. In both instances, the control group received ethanol vehicle only. Cyclophosphamide (35 mg/kg) was given intraperitoneally for one day only. […] Both chemotherapies were started at 11 days of age. Alopecia was recorded on the tenth day after the first dose of chemotherapy. […] Rats were randomized into two groups of ten rats each. One group received vehicle control, while the other received 0.2 μg 1,25(OH)2D3. […] Animals were observed until complete hair regrowth was obtained.
# [5] = system: squamous cell carcinoma and human prostate cell carcinoma; details: 2.5 μg calcitriol 3 doses daily for 3 days, followed by paclitaxel; cited from earlier work
# MIAC51 = test: Cure / survival rate of chloroleukemic rats after chemotherapy; assay type: in vivo, rat; details: for Cured (number of rats): of 40
# Protocol: On day 5 after birth all rats received 1×105 MIAC51 intraperitoneally in 0.1 mL of serum free (SF) RPMI. MIAC51 were cultured in RPMI 1640 supplemented with L-glutamine and 10% fetal bovine serum at […] in a 5% CO2, 100% humidity incubator. Cells were grown to 50% confluency (1.5×106 mL) collected in 50 mL conical tubes, centrifuged at 600 g for 10 minutes at room temperature and resuspended in SF-RPMI at a concentration of 1×10^6/mL prior to injection.
# BALB/c mice = details: cited from earlier work
# PaCa2 = test: Cell growth / viability assay; assay type: cell-based
# MCF-7 = test: Cell growth / viability assay; assay type: cell-based
# [6] = 0.1 μg/mL calcitriol for two passages
# [7] = 0.1 μg/mL calcitriol supplement
# [8] = ADM + paclitaxel + etoposide, after two rounds
# [9] = CTX + ADM + ARA-C, after two rounds
# [10] = CTX + paclitaxel + etoposide, after two rounds
# [11] = CTX, after two rounds of chemotherapy
smiles,measurement,setting,value
"C=C1/C(=C\C=C2/CCC[C@]3(C)[C@@H]([C@H](C)CCCC(C)(C)O)CC[C@@H]23)C[C@@H](O)C[C@@H]1O [Calcitriol, (1a.3B.5Z.7E)-9,10-secocholesta-5,7,10(19)-triene-1,3,25-triol]",dermal irritation,[1],no dermal irritation
same,skin penetration,[1],excellent epidermal penetration without substantial dermal penetration
same,NOAEL at 29 days,[2],3.33 µg/kg
same,no-observed-adverse-effect-level (NOAEL),Gottingen Minipig,10.31 µg/mL
same,extent of hair growth,[3]; 1 μg/mL,hair growth was limited to the treated area
same,extent of hair growth,[3]; 3 μg/mL,hair growth was also observed on the dorsal region
same,protection against CIA,"[3]; 1 to 3 μg/mL applied for 6 hours, all chemotherapeutic agents tested",100%
same,effect on cure rate with cyclophosphamide,[3]; chloroleukemia induced with MIAC51,did not affect the cure rate
same,"protection from CIA, 6-hour exposure","[3]; topical, Days 5 to 10",complete protection
same,"protection from CIA, 1.5 hour exposure","[3]; topical, Days 5 to 10",no protection
same,regrowth of hair in alopecic lesions,C3H/HeJ mouse,No regrowth of hair
same,skin sensitization,guinea pigs,not determined to be a sensitizer
same,effect of calcitriol on cytotoxic effect of Doxorubicin,HepG2,did not appear to appreciably alter
same,"response to doxorubicin, cisplatin, erlotinib after calcitriol exposure",HepG2; [6],did not alter
same,5-FU ED50 curve with vs without calcitriol,HepG2; [7],not significantly different
same,concentrations giving growth inhibition,HepG2; high concentrations,> 0.5 µg/mL
same,concentrations giving growth stimulation,HepG2; low concentrations,0.05 to 0.25 µg/mL
same,"response to doxorubicin, cisplatin, erlotinib after calcitriol exposure",PC-3,did not alter
same,rate of tumor growth vs either agent alone,[4],greater reduction in the rate of tumor growth
same,day of total body hair regrowth,Sprague Dawley rats,50 days
same,tumor response,[5],significant tumor regression
same,% cured / survival rate,MIAC51; [8],80%
same,Cured (number of rats),MIAC51; [8],32
same,% cured / survival rate,MIAC51; [9],78%
same,Cured (number of rats),MIAC51; [9],31
same,% cured / survival rate,"MIAC51; CTX + ADM, after two rounds",50%
same,Cured (number of rats),"MIAC51; CTX + ADM, after two rounds",20
same,% cured / survival rate,MIAC51; [10],83%
same,Cured (number of rats),MIAC51; [10],33
same,% cured / survival rate,MIAC51; [11],25%
same,Cured (number of rats),MIAC51; [11],10
same,effect on efficacy of the chemotherapy agents,MIAC51; calcitriol 2 μg/mL,did not affect the efficacy of the chemotherapy agents
same,protective effect in tumor-bearing male mice,BALB/c mice; injected with EMT-6 murine breast tumor cells,diminished
same,degree of CIA,"BALB/c mice; male mice, topical 5 days prior to i.p. cyclophosphamide",significantly reduced the degree of CIA in a dose-dependent manner
same,effect of calcitriol on cell growth,PaCa2,no significant growth promoting or growth inhibiting effects
same,effect of calcitriol on cytotoxic effect of Doxorubicin,PaCa2,did not appear to appreciably alter
same,"response to doxorubicin, cisplatin, erlotinib after calcitriol exposure",PaCa2; [6],did not alter
same,5-FU ED50 curve with vs without calcitriol,PaCa2; [7],not significantly different
same,effect of calcitriol on cytotoxic effect of Doxorubicin,MCF-7,did not appear to appreciably alter
same,"response to doxorubicin, cisplatin, erlotinib after calcitriol exposure",MCF-7; [6],did not alter
same,concentrations giving growth inhibition,MCF-7; high concentrations,> 0.5 µg/mL
same,concentrations giving growth stimulation,MCF-7; low concentrations,0.05 to 0.25 µg/mL

# Reference: patent US20220023317A1, “PREVENTING OR MITIGATING CHEMOTHERAPY INDUCED ALOPECIA USING VITAMIN D” (Berg LLC, priority 2013, published 2022)
